In patent US20050079151A1, “Therapeutic agents for apoptosis-related diseases” (priority 1998, published 2005):
Read-outs that look alike come from different tables or passages of the source.

B1: mouse MK: mouse MK (JP-A No. Hei 8-196293) (protein, UniProt P12025 23-140, looked up)
Midkine: KKKEKVKKGSECSEWTWGPCTPSSKDCGMGFREGTCGAQTQRVHCKVPCNWKKEFGADCKYKFESWGACDGSTGTKARQGTLKKARYNAQCQETIRVTKPCTSKTKSKTKAKKGKGKD

Key:
hippocampal neurocytes = conditions: cited from earlier work
Bcl-2 = experiment: Effect for enhancing Bcl-2 expression (Western blotting); type: cell-based; conditions: G401 cells, MK 100 ng/ml, no cisplatin
Procedure: The effect of MK on the expression of the Bcl-2 gene was examined. Six groups were prepared; the untreated group, the cisplatin (100 μM) treated group, the human MK (100 ng/ml) treated group, the human MK (100 ng/ml)+cisplatin (100 μM) group, the mouse MK (100 ng/ml) treated group, and the mouse MK (100 ng/ml)+cisplatin (100 μM) treated group.
G401 cells were seeded on a 3.5 cm-dish and cultured in 10% FBS/DMEM until the cells became almost confluent. The cells were washed twice and cultured in 0.1% FBS/DMEM overnight. Then, human MK or mouse MK (JP-A No. Hei 8-196293) was added to the MK treatment groups at 100 ng/ml and cultured for six hours. Cisplatin was added to the cisplatin treatment group to 100 μM, and cultured for 2 hours. After culturing, the cells were washed with 0.1% FBS/DMEM three times, cultured in 0.1% FBS/DMEM for 10 hours, and washed with PBS three times.
Two hundred microliters of buffer [1% Triton X-100, 150 mM NaCl, 10 mM Tris (pH 7.4), 1.0 mM EGTA, 0.5% NP-40, 1 mM PMSF, 0.1 μg/ml apiotinin, 40 nM Iewpeptin] were added to each dish and kept on ice for 20 min. The cells in each dish were detached by a scraper, and mixed 8 to 10 times using a syringe with a 26-gauge needle. The cells of each dish were centrifuged in a centrifuge tube at 4° C. at 12000 rpm for 30 min. The precipitated proteins were quantified (BCA Kit; PIERCE). The precipitate prepared from each dish (50 μg) was analyzed by Western blotting using anti-Bcl-2 monoclonal antibody (500×) (Dako; Denmark) and anti-mouse HRP antibody (Jackson Immuno Research) (FIG. 6). The band in each lane is numerically shown (FIG. 7).

Molecule | rescuing hippocampal neurocytes from delayed neuronal death (hippocampal neurocytes; 28 days after the injury (Ishimura et al. 1998)) | dosage required for protection from delayed neuronal death (hippocampal neurocytes; intraventricular injection (Shigeno et al. 1991)) | rescuing hippocampal neurocytes from delayed neuronal death (hippocampal neurocytes; seven days after development of the ischemic injury (Ishimura et al. 1998)) | expression of Bcl-2 (Bcl-2)
NGF: neurotrophic factor reported in the literature to ameliorate delayed neuronal death | not effective | 10 µg | effective | –
B1 | – | – | – | enhanced the expression of Bcl-2
